Experimental data from ChEMBL document CHEMBL5321279 (J Med Chem, 2023).
Calls of active or inactive are those of the source. The rule behind the calls is not given here.

Experiments:
[1] = Cytotoxicity against human NHBE-T cells assessed as reduction in cell growth measured after 5 days by CellTiter-Glo assay; type: toxicity, cell-based; conditions: NHBE-T cells, time 5 day
SARS-CoV-2 [2] = experiment: Antiviral activity against SARS-CoV-2 Delta (B.1.617.2) infected in human A549-hACE2-TMPRSS2 cells assessed as fold reduction in viral replication pre-incubated with compound followed by viral infection measured after 48 hrs by ELISA assay relative to SARS-CoV-2 WA1; type: functional, Severe acute respiratory syndrome coronavirus 2
SARS-CoV-2 [3] = experiment: Antiviral activity against SARS-CoV-2 Omicron BA.2.12.1 infected in human A549-hACE2-TMPRSS2 cells assessed as fold reduction in viral replication pre-incubated with compound followed by viral infection measured after 72 hrs by ELISA assay relative to SARS-CoV-2 WA1; type: functional, Severe acute respiratory syndrome coronavirus 2
SARS-CoV-2 [4] = experiment: Antiviral activity against SARS-CoV-2 Omicron BA.4 infected in human A549-hACE2-TMPRSS2 cells assessed as fold reduction in viral replication pre-incubated with compound followed by viral infection measured after 72 hrs by ELISA assay relative to SARS-CoV-2 WA1; type: functional, Severe acute respiratory syndrome coronavirus 2
SARS-CoV-2 [5] = experiment: Antiviral activity against SARS-CoV-2 Omicron BA.5 infected in human A549-hACE2-TMPRSS2 cells assessed as fold reduction in viral replication pre-incubated with compound followed by viral infection measured after 72 hrs by ELISA assay relative to SARS-CoV-2 WA1; type: functional, Severe acute respiratory syndrome coronavirus 2
SARS-CoV-2 [6] = experiment: Antiviral activity against SARS-CoV-2 Omicron BA.2.75 infected in human A549-hACE2-TMPRSS2 cells assessed as fold reduction in viral replication pre-incubated with compound followed by viral infection measured after 72 hrs by ELISA assay relative to SARS-CoV-2 WA1; type: functional, Severe acute respiratory syndrome coronavirus 2
SARS-CoV-2 [7] = experiment: Antiviral activity against SARS-CoV-2 Omicron BA.4.6 infected in human A549-hACE2-TMPRSS2 cells assessed as fold reduction in viral replication pre-incubated with compound followed by viral infection measured after 72 hrs by ELISA assay relative to SARS-CoV-2 WA1; type: functional, Severe acute respiratory syndrome coronavirus 2
SARS-CoV-2 [8] = experiment: Antiviral activity against SARS-CoV-2 Omicron BF.5 infected in human A549-hACE2-TMPRSS2 cells assessed as fold reduction in viral replication pre-incubated with compound followed by viral infection measured after 72 hrs by ELISA assay relative to SARS-CoV-2 WA1; type: functional, Severe acute respiratory syndrome coronavirus 2
SARS-CoV-2 [9] = experiment: Antiviral activity against SARS-CoV-2 Omicron XBB infected in human A549-hACE2-TMPRSS2 cells assessed as fold reduction in viral replication pre-incubated with compound followed by viral infection measured after 72 hrs by ELISA assay relative to SARS-CoV-2 WA1; type: functional, Severe acute respiratory syndrome coronavirus 2
[10] = AUC(0 to 24 hrs) in African green monkey infected with SARS-CoV-2 assessed as prodrug conversion by measuring (2R,3R,4S,5R)-2-(4-aminopyrrolo[2,1-f][1,2,4]triazin-7-yl)-3,4-dihydroxy-5-(hydroxymethyl)tetrahydrofuran-2-carbonitrile at 10 mg/kg, iv qd administered for day 1 followed by 5 mg/kg administration measured after 6 days by LC-MS/MS analysis; type: ADME, organism-based, Severe acute respiratory syndrome coronavirus 2; design: dose 10 mg/kg, time 6 day, route iv; conditions: in vivo
PC-3 [11] = experiment: Inhibition of mitochondrial protein synthesis in human PC-3 cells at 100 uM incubated for 5 days; type: functional, cell-based; conditions: time 5.0 day
PC-3 [12] = experiment: Inhibition of mitochondrial respiration in human PC-3 cells at 100 uM incubated for 3 days; type: functional, cell-based; conditions: time 3.0 day
[13] = Lipophilicity, logD of compound; type: physicochemical; conditions: octanol/water
[14] = Apparent permeability of the compound from apical to basolateral side in human Caco-2 cells incubated for 2 hrs by LC-MS/MS analysis; type: ADME, cell-based; conditions: Caco-2
[15] = Thermodynamic aqueous solubility at pH 7 measured at 24 hrs by UPLC analysis; type: physicochemical; conditions: aqueous solution, read-out: Therm_solubility
[16] = AUC(0 to 24 hrs) in rat at 5 mg/kg, po measured upto 24 hrs by LC-MS/MS analysis; type: ADME, organism-based; design: dose 5 mg/kg, time < 24 hrs, route po; conditions: in vivo
MRC5 = experiment: Cytotoxicity against human MRC5 cells assessed as reduction in cell growth measured after 5 days by CellTiter-Glo assay; type: toxicity, cell-based; conditions: mrc5, 120 h, time 5 day
[17] = Drug metabolism in human A549-ACE2 cells assessed as Nucleotide triphosphate metabolite formation at 10 uM measured after 48 hrs by LC-MS analysis; type: ADME, cell-based; conditions: a549-ace2, 48 h
[18] = Drug metabolism in human NHBE-T cells assessed as fold increase in Nucleotide triphosphate metabolite formation at 10 uM measured after 48 hrs by LC-MS analysis; type: ADME, cell-based
[19] = Stability of compound in rat plasma assessed as half life measured upto 4 hrs by LC-MS/MS analysis; type: ADME, cell-free
[20] = Stability of compound in dog liver S9 fraction assessed as half life at pH 7.4 measured upto 90 mins by LC-MS/MS analysis; type: ADME, subcellular, Canis lupus familiaris
[21] = Stability of compound in cynomolgus monkey liver S9 fraction assessed as half life at pH 7.4 measured upto 90 mins by LC-MS/MS analysis; type: ADME, subcellular, Macaca fascicularis
[22] = Stability of compound in human liver S9 fraction assessed as half life at pH 7.4 measured upto 90 mins by LC-MS/MS analysis; type: ADME, subcellular
[23] = AUC(0 to 24 hrs) in cynomolgus monkey at 11.7 mg/kg, po measured upto 24 hrs by LC-MS/MS analysis; type: ADME, organism-based, Macaca fascicularis; design: dose 11.7 mg/kg, time < 24 hrs, route po; conditions: in vivo
[24] = AUC(0 to 24 hrs) in African green monkey at 60 mg/kg, po measured upto 24 hrs by LC-MS/MS analysis; type: ADME, organism-based; design: dose 60 mg/kg, time < 24 hrs, route po; conditions: chlorocebus sabaeus, in vivo
[25] = Oral bioavailability in African green monkey assessed as prodrug conversion by measuring (2R,3R,4S,5R)-2-(4-aminopyrrolo[2,1-f][1,2,4]triazin-7-yl)-3,4-dihydroxy-5-(hydroxymethyl)tetrahydrofuran-2-carbonitrile at 60 mg/kg measured upto 24 hrs by LC-MS/MS analysis; type: ADME, organism-based; conditions: chlorocebus sabaeus, in vivo
[26] = Half life in dog assessed as prodrug conversion by measuring (2R,3R,4S,5R)-2-(4-aminopyrrolo[2,1-f][1,2,4]triazin-7-yl)-3,4-dihydroxy-5-(hydroxymethyl)tetrahydrofuran-2-carbonitrile at […], po measured upto 24 hrs by LC-MS/MS analysis; type: ADME, organism-based, Canis lupus familiaris; conditions: in vivo
[27] = Cmax in cynomolgus monkey assessed as prodrug conversion by measuring (2R,3R,4S,5R)-2-(4-aminopyrrolo[2,1-f][1,2,4]triazin-7-yl)-3,4-dihydroxy-5-(hydroxymethyl)tetrahydrofuran-2-carbonitrile at 11.7 mg/kg, po measured upto 24 hrs by LC-MS/MS analysis; type: ADME, organism-based, Macaca fascicularis; design: time < 24 hrs, dose 11.7 mg/kg, route po; conditions: in vivo
SARS-CoV-2 [28] = experiment: Antiviral activity against SARS-CoV-2 infected in African green monkey assessed as reduction in viral genomic RNA load in throat swabs at 60 to 120 mg/kg, po qd administered for 6 days starting from 8 hrs post infection by RT-qPCR analysis; type: functional, organism-based; conditions: Severe acute respiratory syndrome coronavirus 2, dose lower 60.0 mg/kg, dose upper […], time 6.0 day
[29] = Prodrug conversion in SARS-CoV-2 infected in African green monkey assessed as (2R,3R,4S,5R)-2-(4-aminopyrrolo[2,1-f][1,2,4]triazin-7-yl)-3,4-dihydroxy-5-(hydroxymethyl)tetrahydrofuran-2-carbonitrile mediated log10 reduction of genomic RNA at 60 mg/kg, po qd measured after 6 days by RT-qPCR analysis; type: ADME, organism-based, Severe acute respiratory syndrome coronavirus 2; conditions: in vivo, time 6 day

| SMILES | CC50 at 120 h [1] [µM] | fold change (FC) (SARS-CoV-2 [2]) | fold change (FC) (SARS-CoV-2 [3]) | fold change (FC) (SARS-CoV-2 [4]) | fold change (FC) (SARS-CoV-2 [5]) | fold change (FC) (SARS-CoV-2 [6]) | fold change (FC) (SARS-CoV-2 [7]) | fold change (FC) (SARS-CoV-2 [8]) | fold change (FC) (SARS-CoV-2 [9]) | inhibition (PC-3 [11]) | inhibition (PC-3 [12]) | Papp A→B at 2 h [14] [×10⁻⁶ cm/s] | solubility thermodynamic at 24 h [15] [µg/mL] | CC50 (MRC5) [µM] | Drug metabolism [17] | Drug metabolism [18] | other results |
| --- | --- | --- | --- | --- | --- | --- | --- | --- | --- | --- | --- | --- | --- | --- | --- | --- | --- |
| CCC(CC)COC(=O)[C@H](C)N[P@](=O)(OC[C@H]1O[C@@](C#N)(c2ccc3c(N)ncnn23)[C@H](O)[C@@H]1O)Oc1ccccc1 | > 50 | 0.59 | 0.2 | 0.15 | 0.66 | 0.3 | 0.64 | 0.94 | 1.07 | – | – | – | – | – | – | – | AUC [10]: 7.9 µM·h |
| N#C[C@@]1(c2ccc3c(N)ncnn23)O[C@H](CO)[C@@H](O)[C@H]1O [GS-441524] | – | – | – | – | – | – | – | – | – | inactive | inactive | 0.1 | ≤ 70 | > 89 | Metabolite_Detected | Metabolite_Detected | logD [13]: < 0.3; AUC [16]: 3.97 µM·h; fold change (FC) [18]: > 3 |
| CC(C)C(=O)OC[C@H]1O[C@@](C#N)(c2ccc3c(N)ncnn23)[C@H](O)[C@@H]1O [OBELDESIVIR] | > 50 | 0.72 | 0.29 | 0.26 | 0.83 | 0.35 | 0.62 | 0.8 | 1.1 | inactive | inactive | 1 | ≥ 1000 | > 44 | Metabolite_Detected | Metabolite_Detected | logD ([13]; read-out: logD): < 0.9; half-life [19]: < 3 min; half-life at […] [20]: 4.3 min; half-life at […] [21]: < 2 min; half-life at […] [22]: < 2 min; AUC [23]: 0.01 µM·h; AUC [24]: 0.03 µM·h; F [25]: 36%; t1/2 [26]: 217 min; Cmax [27]: 7.57 µM; Activity (SARS-CoV-2 [28]): Active; log(activity) [29]: -1.41 |
